Molecules are shown by their SMILES.

The results in this text go back to paper PMC6413125 (International Journal of Molecular Sciences, 2019).

Type in all cases: biochemical
Assay [1] deals with T1, Yeast Prion Protein Sup35p (Sup35p7–13) (Saccharomyces cerevisiae, UniProt P05453).
T1 construct: gene SUP35

Assay [2] addresses T2, nucleophosmin 1 (NPM1_264–277) (Homo sapiens, UniProt P06748).
T2 construct: gene NPM1; helix H2 of C-terminal domain, residues 264–277 ([…])
The assay is described as follows: ESI-MS adducts; IC50 from ThT aggregation assay; CD.

The target in another assay is T3, Aβ21–40 (Homo sapiens, UniProt P05067).
T3 construct: gene APP
Put plainly: ESI-MS adducts ([…] and […]); IC50 from ThT aggregation assay.

T3 sequence (P05067 692-711): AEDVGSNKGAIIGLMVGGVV

In the case of `CSC1=[S+][Pt-2]([Cl])([S+](C)(C)=O)[O]C(c2cccc(O)c2)=C1` (stereo not drawn) [compound 1, 1], the IC50 in assay [1] amounted to 55 ± 1.12 µM; in assay [2] it was 62.3 ± 1.3 µM; at Aβ21–40 it was 19.9 ± 1.6 µM.
